Series [1] concerns Smn protein. The series can be described thus: Smn protein assay in cultured cells (SMN HTRF). In kind it is cell-based, human. The settings on record: 48 hours; for EC1.5x (concentration giving 1.5-fold Smn protein increase): SMA Type 1 patient fibroblast cells (GM03813), 7-point concentration curve, SMN HTRF, concentration producing 1.5 times Smn protein vs DMSO vehicle control, read-out: EC1.5x for Smn protein expression; for maximum fold (Fold) increase of Smn protein: SMA patient fibroblast cells, 7-point concentration data, fold increase relative to vehicle control (SMN HTRF). Summed up:
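Lysates in RIPA with protease inhibitors are incubated overnight at room temperature with HTRF anti-SMN antibodies. EC1.5x is derived from fold increase in ΔF over vehicle.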

Series [2] has as its system SMN2 minigene (full length SMN2 minigene mRNA containing SMN2 exon 7). The series can be described thus: SMN2 minigene mRNA splicing RT-qPCR assay in cultured cells. In kind it is cell-based, human. The settings on record: Homo sapiens, HEK293-H, read-out: EC1.5x for production of full length SMN2 mRNA. The method in brief:
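HEK293H cells stably carrying the SMN2-A minigene treated 24 h at 37° C with compound (DMSO, 200× stock), then lysed. Multiplex RT-qPCR (SMN primers 0.4 μM final; 40 cycles) measures full-length exon 7-containing minigene mRNA, normalized to GAPDH and to vehicle; EC1.5x derived and binned by stars.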

[3] abbreviates: HEK293H cells stably transfected with SMN2-A minigene, 24 hours, 7-point concentration curve, 1.5-fold relative to vehicle-treated cells.

Like-named read-outs stand apart in the source and are kept apart here.

Turning to `Cc1cn2cc(-c3cc4ccc(N(C)[C@H]5CCNC5)cc4oc3=O)nc2c(C)n1` [Cpd 620, 3-(6,8-dimethylimidazo[1,2-a]pyrazin-2-yl)-7-{methyl[(3S)-pyrrolidin-3-yl]amino}-2H-chromen-2-one], the melting point was in the range of 192 to 202 °C. In addition, in series [1], the EC1.5x (concentration giving 1.5-fold Smn protein increase) is under 300 nM; the “maximum fold (Fold) increase of Smn protein” value (from here on “maximum fold (Fold) increase”) was “**** (fold increase between >1.5 and ≤1.65)”. Further, the EC (1.5-fold) in series [2] (setting [3]) is under 0.1 µM.

The compound `Cc1cn2cc(-c3cc4ccc(N5CC[C@H](N(C)C)C5)cc4oc3=O)ccc2n1` [Compound 717, 7-[(3S)-3-(dimethylamino)pyrrolidin-1-yl]-3-(2-methylimidazo[1,2-a]pyridin-6-yl)-2H-chromen-2-one] gave a melting point of 230 to 234 °C. Moreover, the “maximum fold (Fold) increase” value in series [1] is “*** (fold increase between >1.35 and ≤1.5)”. In addition, the EC (1.5-fold) in series [2] (setting [3]) lay within 0.3 to 1 µM.

Regarding `Cc1ccn2cc(-c3cc4ccc(NCCN(C)C)cc4oc3=O)nc2c1` [Compound 470, 7-{[2-(dimethylamino)ethyl]amino}-3-(7-methylimidazo[1,2-a]pyridin-2-yl)-2H-chromen-2-one], the melting point was 156 to 159 °C. The “maximum fold (Fold) increase” value in series [1] was “* (maximum fold increase of ≤1.2)”. The EC (1.5-fold) in series [2] (setting [3]) was 1 to 3 µM.

With `Cc1cn2cc(-c3cc4ccc(C5CCN(C6COC6)CC5)cc4oc3=O)ccc2n1` [Compound 828, 3-(2-methylimidazo[1,2-a]pyridin-6-yl)-7-[1-(oxetan-3-yl)piperidin-4-yl]-2H-chromen-2-one], the melting point fell in the range of 198 to 200 °C. Further, in series [1], the EC1.5x (concentration giving 1.5-fold Smn protein increase) lay within 300 to 1000 nM and the “maximum fold (Fold) increase” value is listed as “***** (fold increase >1.65)”. Also, the EC (1.5-fold) in series [2] (setting [3]) lay within 0.1 to 0.3 µM.

`Cc1ccc(-c2cc3ccc(N4CCNCC4)cc3oc2=O)cn1` [Compound 163, 3-(6-methylpyridin-3-yl)-7-(piperazin-1-yl)-2H-chromen-2-one] gave a melting point of 148 to 150 °C. Moreover, in series [1], the “maximum fold (Fold) increase” value is given as “* (maximum fold increase of ≤1.2)”. For the same compound, in series [2] (24 h), the EC (1.5-fold) fell in the range of 3 to 30 µM.

`CCN1CCC(c2ccc3cc(-c4ccc5nn(C)cc5c4)c(=O)oc3c2)CC1` [Compound 863, 7-(1-ethylpiperidin-4-yl)-3-(2-methyl-2H-indazol-5-yl)-2H-chromen-2-one] came in with a melting point of 196 to 198 °C. In series [1], the EC1.5x (concentration giving 1.5-fold Smn protein increase) was 300 to 1000 nM and the “maximum fold (Fold) increase” value is on record as “***** (fold increase >1.65)”. Moreover, in series [2] (setting [3]), the EC (1.5-fold) fell in the range of 0.1 to 0.3 µM.

Regarding `Cc1nccn2cc(-c3cc4ccc(N5C[C@@H](C)N[C@@H](C)C5)cc4oc3=O)nc12` [Compound 552, 7-[(3R,5S)-3,5-dimethylpiperazin-1-yl]-3-(8-methylimidazo[1,2-a]pyrazin-2-yl)-2H-chromen-2-one], the melting point lay in the range of 250 to 258 °C. Also, in series [1], the EC1.5x (concentration giving 1.5-fold Smn protein increase) is under 300 nM; the “maximum fold (Fold) increase” value was “**** (fold increase between >1.5 and ≤1.65)”. In addition, the EC (1.5-fold) in series [2] (setting [3]) was under 0.1 µM.

Compound `O=c1oc2cc(N3CCN4CCC3CC4)ccc2cc1-c1cn2cccnc2n1` [Compound 440, 7-(1,4-diazabicyclo[3.2.2]non-4-yl)-3-(imidazo[1,2-a]pyrimidin-2-yl)-2H-chromen-2-one] registered a melting point of over 300 °C. Further, the “maximum fold (Fold) increase” value in series [1] was “* (maximum fold increase of ≤1.2)”. The EC (1.5-fold) in series [2] (24 h) lay within 1 to 3 µM.

Turning to `O=c1oc2cc(N3CCCNCC3)ccc2cc1-c1cn2cccc(F)c2n1` [Compound 357, 7-(1,4-diazepan-1-yl)-3-(8-fluoroimidazo[1,2-a]pyridin-2-yl)-2H-chromen-2-one], the melting point was 210 to 213 °C. Further, the “maximum fold (Fold) increase” value in series [1] was “*** (fold increase between >1.35 and ≤1.5)”. In addition, the EC (1.5-fold) in series [2] (setting [3]) was 0.1 to 0.3 µM.

Turning to `Cc1cn2cc(-c3cc4ccc(N5CC[C@H]6CN(C)C[C@H]65)cc4oc3=O)nc2c(C)n1` [Compound 689, 3-(6,8-dimethylimidazo[1,2-a]pyrazin-2-yl)-7-[(3aS,6aS)-5-methylhexahydropyrrolo[3,4-b]pyrrol-1(2H)-yl]-2H-chromen-2-one], the melting point is 241 to 248 °C. For the same compound, the “maximum fold (Fold) increase” value in series [1] is “*** (fold increase between >1.35 and ≤1.5)”. Besides, the EC (1.5-fold) in series [2] (setting [3]) fell in the range of 0.3 to 1 µM.

For the compound `Cc1cn2cc(-c3cc4ccc(C5CCN(C)CC5)cc4oc3=O)ccc2n1` [Compound 826, 3-(2-methylimidazo[1,2-a]pyridin-6-yl)-7-(1-methylpiperidin-4-yl)-2H-chromen-2-one], the melting point lay within 204 to 206 °C. Besides, in series [1], the EC1.5x (concentration giving 1.5-fold Smn protein increase) was under 300 nM and the “maximum fold (Fold) increase” value was “***** (fold increase >1.65)”. For the same compound, the EC (1.5-fold) in series [2] (setting [3]) is under 0.1 µM.

As for `Cc1cn2cc(-c3cc4ccc(N5CCN6CCCCC6C5)cc4oc3=O)nc2c(C)n1` (stereo not drawn) [Compound 633, 3-(6,8-dimethylimidazo[1,2-a]pyrazin-2-yl)-7-(octahydro-2H-pyrido[1,2-a]pyrazin-2-yl)-2H-chromen-2-one], the melting point lay within 225 to 227 °C. Besides, the “maximum fold (Fold) increase” value in series [1] is “*** (fold increase between >1.35 and ≤1.5)”. The EC (1.5-fold) in series [2] (setting [3]) was under 0.1 µM.

For `CCN1CCN(c2ccc3cc(-c4cc5ccccn5n4)c(=O)oc3c2)CC1` [Compound 194, 7-(4-ethylpiperazin-1-yl)-3-(pyrazolo[1,5-a]pyridin-2-yl)-2H-chromen-2-one], the melting point was in the range of 246 to 248 °C. In series [1], the “maximum fold (Fold) increase” value was “* (maximum fold increase of ≤1.2)”. Besides, in series [2] (setting [3]), the EC (1.5-fold) fell in the range of 0.3 to 1 µM.

Compound `O=c1oc2cc(N3CCNCC3)ccc2cc1-c1cc2ncccn2c1` [Cpd 579, 7-(piperazin-1-yl)-3-(pyrrolo[1,2-a]pyrimidin-7-yl)-2H-chromen-2-one] returned a melting point of 235 to 238 °C. The “maximum fold (Fold) increase” value in series [1] is on record as “* (maximum fold increase of ≤1.2)”. In addition, in series [2] (setting [3]), the EC (1.5-fold) was 0.3 to 1 µM.

Take `CC(=O)O.Cc1cn2cc(-c3cc4ccc(N5CCN(C)[C@H](C)C5)cc4oc3=O)nc2c(O)n1` [Compound 760, 7-[(3R)-3,4-dimethylpiperazin-1-yl]-3-(8-hydroxy-6-methylimidazo[1,2-a]pyrazin-2-yl)-2H-chromen-2-one acetate]: the melting point fell in the range of 304 to 306 °C. Moreover, in series [1], the “maximum fold (Fold) increase” value was “*** (fold increase between >1.35 and ≤1.5)”. Further, the EC (1.5-fold) in series [2] (setting [3]) is 0.1 to 0.3 µM.

As for `CCc1cccn2cc(-c3cc4ccc(N5CCN(C)CC5)cc4oc3=O)nc12` [Compound 358, 3-(8-ethylimidazo[1,2-a]pyridin-2-yl)-7-(4-methylpiperazin-1-yl)-2H-chromen-2-one], the melting point was in the range of 137 to 141 °C. Moreover, the “maximum fold (Fold) increase” value in series [1] is “*** (fold increase between >1.35 and ≤1.5)”. Further, the EC (1.5-fold) in series [2] (setting [3]) fell in the range of 1 to 3 µM.

`Cc1cc(F)c2nc(-c3cc4ccc(N5CCNCC5)cc4oc3=O)cn2c1` [Compound 356, 3-(8-fluoro-6-methylimidazo[1,2-a]pyridin-2-yl)-7-(piperazin-1-yl)-2H-chromen-2-one] gave a melting point of 276 to 286 °C. In addition, in series [1], the “maximum fold (Fold) increase” value was “** (fold increase between >1.2 and ≤1.35)”. For the same compound, in series [2] (setting [3]), the EC (1.5-fold) is under 0.1 µM.

The compound `Cc1cn2cc(-c3cc4ccc(C5CCN(C6COC6)CC5)cc4oc3=O)nc2c(C)n1` [Compound 855, 3-(6,8-dimethylimidazo[1,2-a]pyrazin-2-yl)-7-[1-(oxetan-3-yl)piperidin-4-yl]-2H-chromen-2-one] had a melting point of 217 to 223 °C. In series [1], the EC1.5x (concentration giving 1.5-fold Smn protein increase) is under 300 nM and the “maximum fold (Fold) increase” value is “***** (fold increase >1.65)”. Moreover, in series [2] (setting [3]), the EC (1.5-fold) is under 0.1 µM.

Consider `CN1CCN(c2ccc3cc(-c4cccnc4C(F)(F)F)c(=O)oc3c2)CC1` [Compound 125, 7-(4-methylpiperazin-1-yl)-3-[2-(trifluoromethyl)pyridin-3-yl]-2H-chromen-2-one], for which the melting point was 180 to 182 °C. In series [1], the “maximum fold (Fold) increase” value is “* (maximum fold increase of ≤1.2)”. In addition, the EC (1.5-fold) in series [2] (setting [3]) was 1 to 3 µM.

Regarding `Cc1ccn2cc(-c3cc4ccc(N5CCN[C@@H](C)C5)cc4oc3=O)nc2c1` [Compound 213, 3-(7-methylimidazo[1,2-a]pyridin-2-yl)-7-[(3S)-3-methylpiperazin-1-yl]-2H-chromen-2-one], the melting point lay in the range of 234 to 244 °C. Besides, the “maximum fold (Fold) increase” value in series [1] was “*** (fold increase between >1.35 and ≤1.5)”. In addition, the EC (1.5-fold) in series [2] (setting [3]) is 0.1 to 0.3 µM.

`Cc1cc(F)c2nc(-c3cc4ccc(N[C@H]5CCNC5)cc4oc3=O)cn2c1` [Compound 582, 3-(8-fluoro-6-methylimidazo[1,2-a]pyridin-2-yl)-7-[(3S)-pyrrolidin-3-ylamino]-2H-chromen-2-one] registered a melting point of 230 to 240 °C. Moreover, the “maximum fold (Fold) increase” value in series [1] is “** (fold increase between >1.2 and ≤1.35)”. Besides, in series [2] (setting [3]), the EC (1.5-fold) fell in the range of 0.3 to 1 µM.

For the origin of these results see patent USRE47689E1, “Compounds for treating spinal muscular atrophy” (PTC Therapeutics, Inc., priority 2011, dated 2019).
